Measurements published in US10961222B2, “Chemical compound of isocitrate dehydrogenase inhibitor, and application thereof” (NANJING SANHOME PHARMACEUTICAL CO., LTD., priority 2016, dated 2021).

Legend:
[1] = tested on: U87-MG (IDH2-R140Q) subcutaneous xenograft tumor; assay: Subcutaneous xenograft tumor caused by U87-MG (IDH2-R140Q) mutant cells in vivo: intratumor 2-HG; design: species or system BALB/c nude mice; conditions: intragastric, 10 days, mean, relative to U87-MG (IDH2-R140Q) control group
From the text: 1.2 Animals: BALB/c nude mice, 6-7 weeks old, female, 18-22 g, purchased from Nanjing Jinlaichang Company.
U87-MG (IDH2-R140Q) cells and U87-MG cells (wild type) were expanded, and cells in logarithmic growth phase were used for tumor inoculation in vivo. 16 mice were inoculated subcutaneously into the right lower back of the body at an amount of 2×10^6 cells/mouse (the volume ratio of cell suspension to Matrigel was 1:0.8).
The non-mutation control group was nude mice inoculated with U87-MG cells, and the test compound groups and vehicle control group were nude mice inoculated with U87-MG (IDH2-R140Q) cells.
Each group was intragastrically administered with a corresponding concentration of the compound solution, the administration volume was 100 μL/10 g body weight, and the control group was administered the same volume of blank vehicle.
After 10 days of administration, the mice were sacrificed. The tumors were exfoliated, homogenized, and the 2-HG content in the tumor was examined.
The 2-HG concentration in the homogenate of each animal tumor in each group was determined by LC-MS/MS. The percentage (2-HG %) was calculated; the calculation formula is as follows 2-HG %=(2-HG concentration of administration group tumor−2-HG concentration of U87-MG control group tumor)/(2-HG concentration of U87−MG(IDH2-R140Q) control group tumor−2-HG concentration of U87-MG control group tumor)×100%.

[2] = molecular target: T1, U87-MG cell line of overexpressed mutant IDH2 (R140Q) (Homo sapiens, UniProt P48735, R140Q); assay: Cell activity in vitro: 2-HG in culture supernatant of U87-MG (IDH2-R140Q) cells by LC-MS/MS; assay type: cell-based
T1 construct: expressed in transfected cells
T1 sequence (P48735 40-452 R140Q): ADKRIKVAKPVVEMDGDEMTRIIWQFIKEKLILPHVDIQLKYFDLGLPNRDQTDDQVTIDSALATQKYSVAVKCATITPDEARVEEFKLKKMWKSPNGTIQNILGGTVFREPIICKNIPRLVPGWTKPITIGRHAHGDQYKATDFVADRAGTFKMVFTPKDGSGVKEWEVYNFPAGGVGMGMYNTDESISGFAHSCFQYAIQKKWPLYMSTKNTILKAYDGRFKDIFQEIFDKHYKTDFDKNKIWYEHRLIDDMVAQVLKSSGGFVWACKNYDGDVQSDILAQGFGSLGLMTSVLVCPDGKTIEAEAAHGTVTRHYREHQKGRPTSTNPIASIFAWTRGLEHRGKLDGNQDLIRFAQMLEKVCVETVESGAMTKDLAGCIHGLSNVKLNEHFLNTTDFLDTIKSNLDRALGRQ
Protocol: 1.2 Cells: human glioblastoma cell line U87-MG, purchased from the American Type Culture Collection (ATCC);
Cell recovery: U87-MG (IDH2-R140Q) cells and U87-MG cells were put into a 37° C. water bath, then transferred to 15 mL of pre-warmed medium, centrifuged at 1000 rpm for 5 minutes, and the medium was discarded. The cells were resuspended in 15 mL of fresh medium, transferred to a T75 flask and cultured in a 37° C. incubator with 5% CO2. After 24 hours, the medium was changed to fresh medium.
Cell passage: The above-mentioned recovered cells were transferred to a 50 mL sterile centrifuge tube, centrifuged at 1000 rpm for 5 minutes, and the medium was discarded. The cells were resuspended evenly and counted. The cell density was adjusted appropriately in a 15 mL fresh medium, and then added to T75 culture flask. The culture flask was incubated in an incubator with 5% CO2 at 37° C.
After cells grown to a relatively high density in the culture dish, the cells were trypsinized, resuspended in medium (MEM+10% FBS), and counted. After adjusting the cell concentration, the resuspended cells were seeded in a 96-well plate at 5×10^3 cells per well. After inoculation, the cells were cultured for 24 hours until the cells adhered. The medium were sucked out, and the medium containing gradient concentration of compound was added, 100 μL per well. The cells were further cultured for 72 hours. The s 20 μL of upernatant was taken and put into a 2 mL 96-well sample-processing plate. 480 μL of dilution solution was added and shaken for mixing, and then centrifuged at 4500 rpm for 5 minutes. 200 μL of supernatant was transferred for LC-MS/MS injection analysis.
Column: Shim-pack XR-ODS 30L*2.0; mobile phase: acetonitrile-0.2% ammonia, 5 mM ammonium acetate aqueous solution; column temperature: 30° C.; flow rate: 0.4 mL/min; gradient elution conditions are as follows: […]
Atmospheric […] chemical ionization (APCI) was used. Source parameters was set as follows: IonSpray Voltage/IS-4500V; auxiliary gas 1 (Ion Source Gas 1/GS 1, N2), 55Arb; auxiliary gas 2 (Ion Source Gas 2, N2), 55Arb; auxiliary gas heating temperature (Temperature/TEM), 500° C.; curtain gas/CUR, 25Arb; collision gas/CAD, N2, 8 Pa.
Multi-ion reaction monitoring (MRM) in negative ion mode (Negative) was used. […] The internal standard (IS) MRM parameters: parent ion (Q 1 Mass), 178.0 Da; daughter ion (Q3 Mass), 149.0 Da; Decluster Potential (DP), −51V; collision voltage (Collision Energy/CE), −17 eV
By determining the 2-HG content in the cell culture supernatant of each well using LC-MS/MS, the mutant enzyme activity (2-HG remaining compared to untreated %) was calculated. The calculation formula: 2-HG remaining compared to untreated %=(Measured 2-HG level—U87-MG control 2-HG level)/(Untreated 2-HG level—U87-MG control 2-HG level)×100. […] Data were processed by GraphPad Prism v5.0 software and fitted to obtain IC50.

CC(C)(O)CNc1nc(Nc2ccnc(C(F)(F)F)c2)nc(-c2cccc(C(F)(F)F)n2)n1 [AG-221, 2-methyl-1-(4-(6-(trifluoromethyl)pyridin-2-yl)-6-(2-(trifluoromethyl)pyridin-4-ylamino)-1,3,5-triazin-2ylamino)propan-2-ol, reference compound]
Intratumor 2-HG(%) after 10 days of administration ([1]; 6.25 mg/kg): 58%
Intratumor 2-HG(%) after 10 days of administration ([1]; 12.5 mg/kg): 9%
Intratumor 2-HG(%) after 10 days of administration ([1]; 25 mg/kg): −4%
IC50 [2]: 30.2 nM
